ED50 and MIC data for 2 compounds are collected here from patent US5075289A, “9-R-azacyclic erythromycin antibiotics” (priority 1988, dated 1991).

Molecules are shown by their SMILES. In brackets after ≈: the same amount, converted by molar mass. Read-outs that look alike come from different tables or passages of the source.

In assay [1] the test system is Staphylococcus aureus (NCTC 10649). Put plainly: In-vivo mouse protection assay (acute mouse protection test). Also on record: species or system Swiss albino mice. The conditions noted are these: S. aureus NCTC 10649, dosed 1 and 5 hours post infection, 7 days, read-out: ED50. As to the method: (§1) The acute mouse protection test is conducted on ten mice with each of three levels of drug. Mouse mortality is used to calculate an ED50 value, i.e., the dose of drug required to protect 50% of the test animals against death due to the inoculum challenge.
(§2) The acute mouse protection test is conducted on female, Swiss albino mice, 18-20 grams in weight. […] To check the potency of the inoculum, a titration of the indicated test organism is carried out in control animals. The treatment group of animals is dosed with the test compound at 1 and 5 hours post infection and observed for 7 days. The ED50 values are calculated using the mortality data collected.

The test system of assay [2] is Streptococcus pyogenes C-203. The description is as above. Also on record: species or system Swiss albino mice. As to the method: as §1, §2
For assay [3], the system named is Streptococcus pneumoniae (6303). The assay is described as above. Also on record: species or system Swiss albino mice. The conditions noted are these: 168 h, S. pneumoniae 6303, dosed 1 and 5 hours post infection, 7 days, read-out: ED50. As to the method: as §1, §2
The test system of assay [4] is Staphylococcus aureus 45 RAR 2. Put plainly: microbe, parasite or virus in culture. The assay is classed as cell-based. The conditions noted are these: 45RAR2. Put shortly:
(§3)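 Test compound serially diluted in Brain Heart Infusion agar across twelve plates; inocula of 1:100 dilutions (1:10 for slow growers such as Streptococcus) applied by replicator. Plates incubated 20-24 h at 35°-37° C. MIC taken as lowest concentration giving no growth, slight haze or sparse isolated colonies versus drug-free control.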

Assay [5] relates to Haemophilus influenzae 751. Nature of the assay: In vitro antibacterial activity, agar dilution MIC. The format is cell-based. The conditions noted are these: H. influenzae 751. In a few lines: as §3
Background: Agar dilution tests growth on a series of plates holding different concentrations.

[6] abbreviates: NCTC10649, sc, 168 h, Subcutaneous.
[7] abbreviates: C203, 168 h, Oral, S. pyogenes C-203, dosed 1 and 5 hours post infection, 7 days, read-out: ED50.

Consider `CC[C@H]1OC(=O)[C@H](C)[C@@H](O[C@H]2C[C@@](C)(OC)[C@@H](O)[C@H](C)O2)[C@H](C)[C@@H](O[C@@H]2O[C@H](C)C[C@H](N(C)C)[C@H]2O)[C@](C)(O)C[C@@H](C)[C@@H](N2CCOCC2)[C@H](C)[C@@H](O)[C@]1(C)O` [Example 19], for which the ED50 (usually the midpoint of the dose-response relation) worked out at 44.8 mg/kg in assay [1] (NCTC10649, 168 h, Oral); 15.5 mg/kg in assay [1] (setting [6]); 9.5 mg/kg in assay [2] (setting [7]); 2.1 mg/kg in assay [2] (C203, sc, 168 h); 9.7 mg/kg in assay [3] (Oral); 1.1 mg/kg in assay [3] (sc, Subcutaneous). For the same compound, the figures for the MIC in assay [4] and in assay [5] were 0.39 µg/mL (≈ 0.484 µM) and 8 µg/mL (≈ 9.94 µM), respectively.

Take `CC[C@H]1OC(=O)[C@H](C)[C@@H](O[C@H]2C[C@@](C)(OC)[C@@H](O)[C@H](C)O2)[C@H](C)[C@@H](O[C@@H]2O[C@H](C)C[C@H](N(C)C)[C@H]2O)[C@](C)(O)C[C@@H](C)[C@@H](N2CCCCC2)[C@H](C)[C@@H](O)[C@]1(C)O` [Example 5]: the 50% effective dose (ED50) in assay [1] (NCTC10649, 168 h, Oral) was 41.9 mg/kg; in assay [1] (setting [6]), 7.5 mg/kg; in assay [2] (setting [7]) it was below 7.5 mg/kg; in assay [2] (C203, sc, 168 h, Subcutaneous, S. pyogenes C-203, dosed 1 and 5 hours post infection, 7 days, read-out: ED50) it was below 0.6 mg/kg; in assay [3] (Oral), 4.5 mg/kg; in assay [3] (sc, Subcutaneous), 0.4 mg/kg. The values for the MIC in assay [4] and in assay [5] were 0.78 µg/mL (≈ 0.971 µM) and 4 µg/mL (≈ 4.98 µM), respectively.
